# Assay results reported in patent publication US20100267561A1, “HERBICIDAL PYRIDAZINONE DERIVATIVES” (priority 2007, published 2010).
# How the values were obtained:
# Test in all cases: Test B pre-/postemergence plant response
# Assay type in all cases: in vivo
# [1] = tested on: morningglory (Ipomoea coccinea)
# Outline: (§1)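 Visual scoring from 0 (no effect) to 100 (complete control) against untreated controls was done 13 to 15 days after greenhouse treatment. Chemicals were formulated in a surfactant-containing non-phytotoxic solvent and applied to soil preemergence or to 1- to 4-leaf (2-18 cm) plants postemergence.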
# [2] = tested on: Italian ryegrass (Lolium multiflorum)
# Outline: as §1
# [3] = tested on: giant foxtail (Setaria faberii)
# Outline: as §1
# [4] = tested on: eastern black (E.B.) nightshade (Solanum ptycanthum); conditions: Preemergence
# Outline: as §1
# [5] = tested on: johnsongrass (Sorghum halepense)
# Outline: as §1
# [6] = tested on: green foxtail (Setaria viridis)
# Outline: as §1
# wild oat (Avena fatua) = tested on: wild oat (Avena fatua)
# Outline: as §1
# [7] = tested on: yellow nutsedge (Cyperus esculentus)
# Outline: as §1
# [8] = tested on: catchweed bedstraw (Galium aparine); conditions: Preemergence; 8 g ai/ha; scale 0 to 100
# Outline: as §1
# [9] = tested on: pigweed (Amaranthus retroflexus)
# Outline: as §1
# [10] = tested on: woolly cupgrass (Eriochloa villosa)
# Outline: as §1
# [11] = tested on: blackgrass (Alopecurus myosuroides); conditions: for Blackgrass plant response rating: 8 g ai/ha
# Outline: as §1
# [12] = tested on: velvetleaf (Abutilon theophrasti)
# Outline: as §1
# [13] = tested on: downy bromegrass (Bromus tectorum); conditions: for Bromegrass, Downy plant response rating: 8 g ai/ha
# Outline: as §1
# [14] = 8 g ai/ha, postemergence, 0-100 scale
# [15] = Postemergence, 16 g ai/ha, scale 0 to 100
# [16] = Postemergence, 31 g ai/ha, scale 0 to 100
# [17] = Postemergence, 62 g ai/ha, scale 0 to 100, 0 no effect, 100 complete control
# [18] = Preemergence, 31 g ai/ha, scale 0 to 100 (0 no effect, 100 complete control)
# [19] = Preemergence, 62 g ai/ha, scale 0 to 100
# [20] = Preemergence, 8 g ai/ha, scale 0 to 100
# [21] = Preemergence, 16 g ai/ha, scale 0 to 100
# [22] = Preemergence, 31 g ai/ha, 0 to 100 scale, 0 no effect, 100 complete control
# [23] = Preemergence, 16 g ai/ha, scale 0 to 100 (0 no effect, 100 complete control)
smiles,measurement,setting,value
CCOC(=O)Oc1cnn(C)c(=O)c1-n1nc(-c2ccc(Cl)cc2)cc1C [Compound 53],Morningglory plant response rating,[1]; [14],0
same,"Plant response rating, Morningglory",[1]; [15],0
same,"Plant response rating, Morningglory",[1]; [16],0
same,"Plant response rating, Morningglory",[1]; [17],0
same,"Plant response rating, Morningglory",[1]; [18],0
same,"Plant response rating, Morningglory",[1]; [19],0
same,Morningglory plant response rating,[1]; [20],0
same,Morningglory plant response rating,[1]; [21],0
same,"Ryegrass, Italian plant response rating",[2]; [14],85
same,"Plant response rating, Ryegrass, Italian",[2]; [15],90
same,"Plant response rating, Ryegrass, Italian",[2]; [16],100
same,"Plant response rating, Ryegrass, Italian",[2]; [17],100
same,"Plant response rating, Ryegrass, Italian",[2]; [18],100
same,"Plant response rating, Ryegrass, Italian",[2]; [19],100
same,"Ryegrass, Italian plant response rating",[2]; [20],80
same,"Ryegrass, Italian plant response rating",[2]; [21],100
same,"Foxtail, Giant plant response rating",[3]; [14],85
same,"Plant response rating, Foxtail, Giant",[3]; [15],95
same,"Plant response rating, Foxtail, Giant",[3]; [16],100
same,"Plant response rating, Foxtail, Giant",[3]; [17],100
same,"Plant response rating, Foxtail, Giant",[3]; [22],45
same,"Plant response rating, Foxtail, Giant",[3]; [19],70
same,"Foxtail, Giant plant response rating",[3]; [20],0
same,"Foxtail, Giant plant response rating",[3]; [21],20
same,"Plant response rating, Nightshade, E. B.","[4]; 31 g ai/ha, scale 0 to 100 (0 no effect, 100 complete control)",15
same,"Plant response rating, Nightshade, E. B.","[4]; 62 g ai/ha, scale 0 to 100",20
same,"Nightshade, E. B. plant response rating","[4]; 8 g ai/ha, scale 0 to 100",0
same,"Nightshade, E. B. plant response rating","[4]; 16 g ai/ha, scale 0 to 100",0
same,Johnsongrass plant response rating,[5]; [14],35
same,"Plant response rating, Johnsongrass",[5]; [15],70
same,"Plant response rating, Johnsongrass",[5]; [16],98
same,"Plant response rating, Johnsongrass",[5]; [17],100
same,"Plant response rating, Johnsongrass",[5]; [22],75
same,"Plant response rating, Johnsongrass",[5]; [19],100
same,Johnsongrass plant response rating,[5]; [20],45
same,Johnsongrass plant response rating,[5]; [21],65
same,"Foxtail, Green plant response rating",[6]; [14],95
same,"Plant response rating, Foxtail, Green",[6]; [15],95
same,"Plant response rating, Foxtail, Green",[6]; [16],100
same,"Plant response rating, Foxtail, Green",[6]; [17],100
same,"Plant response rating, Foxtail, Green",[6]; [22],100
same,"Plant response rating, Foxtail, Green",[6]; [19],100
same,"Foxtail, Green plant response rating",[6]; [20],95
same,"Foxtail, Green plant response rating",[6]; [21],100
same,"Oat, Wild plant response rating",wild oat (Avena fatua); [14],80
same,"Plant response rating, Oat, Wild",wild oat (Avena fatua); [15],90
same,"Plant response rating, Oat, Wild",wild oat (Avena fatua); [16],95
same,"Plant response rating, Oat, Wild",wild oat (Avena fatua); [17],98
same,"Plant response rating, Oat, Wild",wild oat (Avena fatua); [18],80
same,"Plant response rating, Oat, Wild",wild oat (Avena fatua); [19],85
same,"Oat, Wild plant response rating",wild oat (Avena fatua); [20],40
same,"Oat, Wild plant response rating",wild oat (Avena fatua); [21],65
same,"Nutsedge, Yellow plant response rating",[7]; [14],0
same,"Plant response rating, Nutsedge, Yellow",[7]; [15],0
same,"Plant response rating, Nutsedge, Yellow",[7]; [16],0
same,"Plant response rating, Nutsedge, Yellow",[7]; [17],0
same,"Plant response rating, Nutsedge, Yellow",[7]; [18],0
same,"Plant response rating, Nutsedge, Yellow",[7]; [19],0
same,"Nutsedge, Yellow plant response rating",[7]; [20],0
same,"Nutsedge, Yellow plant response rating",[7]; [21],0
same,Galium plant response rating,[8],0
same,Pigweed plant response rating,[9]; [14],0
same,"Plant response rating, Pigweed",[9]; [15],0
same,"Plant response rating, Pigweed",[9]; [16],0
same,"Plant response rating, Pigweed",[9]; [17],0
same,"Plant response rating, Pigweed",[9]; [18],0
same,"Plant response rating, Pigweed",[9]; [19],0
same,Pigweed plant response rating,[9]; [20],0
same,Pigweed plant response rating,[9]; [21],0
same,"Cupgrass, Woolly plant response rating",[10]; [14],85
same,"Plant response rating, Cupgrass, Woolly",[10]; [15],100
same,"Plant response rating, Cupgrass, Woolly",[10]; [16],100
same,"Plant response rating, Cupgrass, Woolly",[10]; [17],100
same,"Plant response rating, Cupgrass, Woolly",[10]; [22],0
same,"Plant response rating, Cupgrass, Woolly",[10]; [19],0
same,"Cupgrass, Woolly plant response rating",[10]; [20],0
same,"Cupgrass, Woolly plant response rating",[10]; [21],0
same,Blackgrass plant response rating,"[11]; postemergence, 0-100 scale",30
same,"Plant response rating, Blackgrass",[11]; [15],60
same,"Plant response rating, Blackgrass",[11]; [16],95
same,"Plant response rating, Blackgrass",[11]; [17],95
same,"Plant response rating, Blackgrass",[11]; [23],100
same,"Plant response rating, Blackgrass",[11]; [22],100
same,"Plant response rating, Blackgrass",[11]; [19],100
same,Blackgrass plant response rating,"[11]; Preemergence, scale 0 to 100",95
same,Velvetleaf plant response rating,[12]; [14],0
same,"Plant response rating, Velvetleaf",[12]; [15],0
same,"Plant response rating, Velvetleaf",[12]; [16],0
same,"Plant response rating, Velvetleaf",[12]; [17],0
same,"Plant response rating, Velvetleaf",[12]; [18],0
same,"Plant response rating, Velvetleaf","[12]; Preemergence, 62 g ai/ha, 0 to 100 scale, 0 no effect, 100 complete control",0
same,Velvetleaf plant response rating,[12]; [20],0
same,Velvetleaf plant response rating,[12]; [21],0
same,"Bromegrass, Downy plant response rating","[13]; postemergence, 0-100 scale",10
same,"Plant response rating, Bromegrass, Downy",[13]; [15],45
same,"Plant response rating, Bromegrass, Downy",[13]; [16],60
same,"Plant response rating, Bromegrass, Downy",[13]; [17],90
same,"Plant response rating, Bromegrass, Downy",[13]; [23],50
same,"Plant response rating, Bromegrass, Downy",[13]; [22],70
same,"Plant response rating, Bromegrass, Downy",[13]; [19],90
same,"Bromegrass, Downy plant response rating","[13]; Preemergence, scale 0 to 100",10
